{"source": "patent US7858578B2", "about": "“Methods of inducing neuronal growth by a Fucose-α(1-2) galactose (fuc-α(1-2) gal) moiety and a lectin” (California Institute of Technology, priority 2004, dated 2010)", "key": {"[1]": {"system": "hippocampal neurons", "experiment": "Effects of deoxy-galactose sugars on neuronal morphology (anti-tau immunostaining)", "format": "cell-based, rat", "experimental": "Hippocampal neurons were plated on poly-DL-ornithine-coated glass coverslips as described above. After one day in culture, the medium was replaced with fresh medium, and the small molecules (2-dGal, 3-Deoxy-D-Galactose (3-dGal), or D-Galactose (Gal)) were added. A dose-response experiment was initially performed to determine the minimum concentration of 2-dGal needed to elicit an effect. Neurons were treated with varying concentrations of 2-dGal (1, 5, 10, 15, or 30 mM in 25 μL PBS with 475 μL of supplemented Neurobasal medium) for 2 days before immunostaining with anti-tau antibodies as described above.\nCells were treated as above under 4 different conditions: (1) no treatment for 2 days, (2) incubation with 15 mM 2-dGal for 2 days, (3) incubation with 15 mM 2-dGal for 2 days followed by incubation with 75 mM Gal for 2 days, or (4) incubation with 15 mM 3-dGal for 2 days. After adding the small molecules, cultures were incubated at 37° C., 5% CO2, then washed once with PBS, and immunostained with anti-tau antibody as described above."}, "[2]": {"system": "Fucα(1-2)Gal epitope on glycoproteins", "experiment": "Western blot of neuronal lysates with anti-Fucα(1-2)Gal antibody A46-B/B10", "format": "cell-based, rat", "settings": "30 mM, 4 days", "experimental": "In addition to cells plated on coverslips, hippocampal neurons were grown in 30 mm dishes and treated with or without 30 mM 2-dGal (25 μL in PBS with 475 μL supplemented Neurobasal medium). After 4 days, cells were harvested with 2.5% trypsin, lysed with 1% boiling SDS with protease inhibitors, and cell lysates probed by Western blotting using the anti-Fucα(1-2)Gal antibody A46-B/B10 (Karsten, U., et al., G. Br. J. Cancer, 58:176-181 (1988)). Protein concentrations of the neuronal lysates were determined using the BCA Protein Assay (Pierce). Equal amounts of total protein were resolved by 10% SDS-PAGE, and proteins were transferred to PVDF membrane (Millipore) in 20 mM Tris-Cl pH 8.6/120 mM glycine/20% methanol. Western blots were blocked for 1 h with 3% periodated BSA (Glass, W. F., et al., Anal. Biochem., 115:219-224 (1981)) and rinsed with TBST (50 mM Tris-Cl pH 7.4/150 mM NaCl/0.1% Tween-20). Blots were incubated with anti-Fucα(1-2)Gal antibody A46-B/B10 (0.5 μg/mL; gift from Dr. U. Karsten, Max-Delbruck Centre for Molecular Medicine, Berlin-Buch, Germany) in TBST overnight at 4° C. with constant rocking, then rinsed and washed twice for 10 min with TBST. Immunoreactivity was visualized by incubation with a horseradish peroxidase conjugated goat anti-mouse antibody (1:2500; Pierce) in TBST for 1 h followed by a rinse and four washes of 20 min with TBST. […]"}, "[3]": {"system": "synapsin I expressed in HeLa cells", "experiment": "Synapsin fucosylation and expression in synapsin I-transfected HeLa cells (immunoblotting)", "format": "cell-based", "settings": "deoxy sugar for 24 h", "experimental": "(§1) FIG. 19. Inhibition of synapsin fucosylation using 2-dGal decreases the expression and half-life of synapsin I. (A) Effects of 2-dGal and 6-dGal on synapsin fucosylation (left panel) and synapsin expression (right panel) levels. Synapsin I-transfected HeLa cells were treated with the indicated amounts of the deoxy sugar for 24 h. Fucosylation and synapsin expression levels were measured by immunoblotting with antibody A46-B/B10 and an anti-synapsin antibody, respectively. […] Synapsin I-transfected HeLa cells were treated with 2-dGal or a vehicle control (PBS), pulse labeled with ^35S-L-cysteine and ^35S-L-methionine as described in Materials and Methods, and chased for the indicated times. ^35S-labeled synapsin levels were measured by autoradiography. (C) Inhibition of the calcium-activated protease calpain using a calpain inhibitor peptide or calpeptin protects synapsin from degradation. […] Synapsin I-transfected HeLa cells were treated with the indicated inhibitors or vehicle control (DMSO, PBS or MeOH) in the presence or absence of 2-dGal for 15 h. Following lysis, the cell extracts were analyzed for synapsin expression levels by immunoblotting.\nThe effects of 2-dGal on synapsin I expressed in HeLa cells were next investigated. Cell lysates containing equivalent amounts of transfected protein were resolved by SDS-PAGE, and the fucosylation and protein levels of synapsin were measured by immunoblotting, using methods described above."}, "[4]": {"system": "synapsin I-transfected HeLa cells", "experiment": "Synapsin degradation with inhibitors of protein degradation with or without 2-dGal", "format": "cell-based", "settings": "2-dGal alone, 15 h", "experimental": "as §1\nTo investigate the molecular mechanisms responsible for synapsin degradation, cells expressing synapsin were treated with various inhibitors of protein degradation in the presence or absence of 2-dGal. Specifically, the lysosomal inhibitors bafilomycin A1 and ammonium chloride, the proteasome inhibitor MG132, and two inhibitors of the calcium-dependent protease calpain, were used."}, "[5]": {"system": "E18 cortical neurons", "experiment": "Expression of synaptic proteins in cultured neurons (Western blotting)", "format": "cell-based", "settings": "15 mM for 3 days, neurons 7 DIV", "experimental": "(§2) FIG. 20. […] (A) E18 cortical neurons cultured for 7 DIV were treated with 15 mM of 2-dGal or 6-dGal for 3 days. Protein lysates were analyzed by Western blotting using antibodies selective for the indicated proteins. A significant reduction in the expression of synapsin Ib was observed, while other synapse-associated proteins were unaffected by the 2-dGal treatment. (B) Neurite retraction caused by 2-dGal is reduced in synapsin-deficient mice. Neurons from synapsin I-deficient or wild-type mice were cultured for 2 days, treated with 2-dGal for 3 days, and analyzed for mean neurite length.\nTo examine the effects of 2-dGal on synapsin fucosylation in neurons, neurons were cultured for 7 DIV to allow for adequate expression of synapsin and subsequently treated with 2-dGal or 6-dGal for comparison. Cells were lysed and immunoblotted as described above. […] The expression of other synaptic proteins, including NSF, the synaptic vesicle protein synaptotagmin, the presynaptic plasma membrane protein syntaxin, and the postsynaptic proteins PSD-95, the AMPA receptor GluR1 subunit and spinophilin, was unchanged by the 2-dGal treatment."}, "[6]": {"system": "neurons from synapsin I-deficient or wild-type mice", "experiment": "2-dGal-mediated neurite retraction in neurons from synapsin I-deficient or wild-type mice", "format": "cell-based", "settings": "cultured 2 days, 2-dGal for 3 days; n=50; p<0.003", "experimental": "as §2\nAlthough synapsin I represents the major fucosylated protein in mature neuronal cultures, other proteins are also covalently modified by Fucα(1-2)Gal during early developmental stages (See FIG. 9A). The relative contribution of synapsin to the striking effects of 2-dGal on neuronal morphology were therefore investigated. Neurons were cultured from synapsin I-deficient (Chin, L. S., et al., Proc. Natl. Acad. Sci. USA 92:9230-9234 (1995); Drs. H. T Kao and P. Greengard, The Rockefeller University, New York, N.Y.) or wild-type mice for 2 days, treated with 2-dGal for 3 days, immunostained for tubulin, and examined by confocal fluorescence microscopy. […]"}, "[7]": {"settings": "animals; cited from earlier work"}, "[8]": {"system": "hippocampal slices", "settings": "cited from earlier work"}}, "note": "“Also recorded” adds a separate entry of the source."}
{"compound": "O=CC[C@@H](O)[C@@H](O)[C@H](O)CO", "note": "[Compound 2-dGal, 2-Deoxy-D-Galactose]", "values": [{"measurement": "effect on neurite outgrowth", "setting": "[1]; 15 mM for 2 days", "value": "strong effect on neurite outgrowth; also recorded: severely stunted neurites and failed to form synapses; also recorded: inhibits neuronal growth"}, {"measurement": "neurites with increasing concentration", "setting": "[1]; 1, 5, 10, 15 or 30 mM for 2 days", "value": "gradual decrease in neurites"}, {"measurement": "cellular toxicity (trypan blue staining, adherence, morphology)", "setting": "[1]; concentrations up to 30 mM", "value": "No cellular toxicity"}, {"measurement": "level of Fucα(1-2)Gal epitope on glycoproteins", "setting": "[2]", "value": "disrupted synthesis of the Fucα(1-2)Gal epitope on glycoproteins; also recorded: significantly reduced levels of the Fucα(1-2)Gal epitope; also recorded: diminishes expression of the Fucα(1-2)Gal epitope"}, {"measurement": "fucosylation level of synapsin", "setting": "[3]", "value": "dramatic effect on the fucosylation level of synapsin"}, {"measurement": "level of synapsin protein", "setting": "[3]", "value": "significant decrease in the level of synapsin protein"}, {"measurement": "levels of synapsin expression", "setting": "[4]", "value": "significantly reduced the levels of synapsin expression"}, {"measurement": "expression of other synaptic proteins (NSF, synaptotagmin, syntaxin, PSD-95, GluR1, spinophilin)", "setting": "[5]", "value": "unchanged"}, {"measurement": "expression of synapsin I", "setting": "[5]", "value": "dramatically reduced the expression of synapsin I; also recorded: reduces synapsin I expression levels"}, {"measurement": "increase of mean neurite length, synapsin knockout compared to wild-type neurons", "setting": "[6]", "value": "17.4±5.2", "unit": "%"}, {"measurement": "effect on memory", "setting": "[7]", "value": "reversible amnesia"}, {"measurement": "effect on LTP", "setting": "[8]", "value": "interferes with the maintenance of long-term potentiation"}]}
